Results: patent US6562602B2, “Fermentation and purification of mycolactones” (priority 2000, dated 2003)

Assay: stability of individual enriched mycolactone isomers in presence and absence of laboratory light, followed by HPLC
Type: physicochemical
Conditions: ambient light versus no light; data not shown
Description: To monitor stability of the individual enriched isomers, HPLC data was collected on samples stored in the presence and absence of laboratory light. Measurements were made on samples stored in methanol at 23° C. Initial HPLC sampling was carried out on individual isomers shielded to minimize exposure to laboratory light. These same samples were allowed to remain in the autosampler, shielded from light, for 72 hours before additional HPLC data was collected. Following this, the samples were stored on a lab bench exposed to laboratory light for 52 hours, at which time the final HPLC data time point was collected. Under these conditions, samples that were shielded from light remained stable, showing no change in their respective HPLC chromatograms.

Row | Molecule | equilibration between double bond isomers
1 | CC(=C\C=C\C(C)=C\C(O)C(O)CC(C)O)/C=C(C)/C=C/C(=O)OC1CCCC(=O)OC(C(C)C/C(C)=C/C(C)C(O)CC(C)O)C/C=C(\C)CC1C (centres unmarked) [mycolactone B] | occur only when the sample was exposed to ambient light
2 | mycolactone A | occur only when the sample was exposed to ambient light
